Laboratory results as given in publication PMC7896091, “Synthesis of novel phytol-derived γ-butyrolactones and evaluation of their biological activity” (Scientific Reports, 2021).

Columns and labels:
LoVo/DX cells = experiment: Antiproliferative activity, SRB assay, doxorubicin resistant subline; type: cell-based, human; conditions: for IC50: 72 h exposure, SRB, mean ± SD, n.a = no activity in concentration of 5, 25, 125, 625 μM; for Selectivity index SI, LoVo/DX: SI = IC50 BALB/3T3 / IC50 LoVo/DX
Experimental: Cell lines were cultured according to the protocol described before. […] All culture media were supplemented with 2 mM L-glutamine (Sigma-Aldrich, Germany), 100 units/mL penicillin, and 100 µg/mL streptomycin (both from Polfa Tarchomin S.A., Poland). All cell lines were grown at 37 °C with 5% CO2 humidified atmosphere. The solutions of the compounds (50 mM) were prepared by dissolving the substances in DMSO (Sigma Aldrich, Germany). […] The in vitro cytotoxic effect of all agents was examined using the MTT (MV4-11) or SRB assay, described previously. […] Each compound in each concentration was tested in triplicate in a single experiment, which was repeated 3–5 times.

Myzus persicae = experiment: EPG monitoring of aphid probing and feeding (no-choice test); type: in vivo; conditions: 8-h EPG; for Mean duration of probing (C + G + E) / Number of probes / Total duration of pathway (C) / Total duration of phloem phase (E) / Total duration of probing (C + G + E): 0.1% solution, n = 12; for Mean duration of probing (C + G + E) / Number of probes / Total duration of pathway (C) / Total duration of phloem phase (E) / Total duration of probing (C + G + E) / Number of probes before first phloem phase / Time from first probe to first phloem phase / Duration of first phloem phase / Total duration of phloem salivation E1 / Total duration of phloem sap ingestion E2 / Number of probes < 3 min: mean ± SE; for Number of probes before first phloem phase / Time from first probe to first phloem phase: activities in non-phloem tissues; for Number of probes before first phloem phase / Time from first probe to first phloem phase / Duration of first phloem phase / Total duration of phloem salivation E1 / Total duration of phloem sap ingestion E2 / Number of probes < 3 min: n = 10-12; for Duration of first phloem phase / Total duration of phloem salivation E1 / Total duration of phloem sap ingestion E2: activities in sieve elements; for Number of probes < 3 min: before first phloem phase; for Proportion of salivation in phloem phase: (duration of E1 / duration of E1 + E2)*100; for Proportion of phloem phase in total probing: index = duration of phloem phase E / duration of probing C + G + E
Experimental: The peach potato aphids Myzus persicae (Sulzer) and the Chinese cabbage Brassica rapa subsp. pekinensis (Lour.) Hanelt were reared in laboratory at 20 °C, 65% r.h., and L16:8D photoperiod. One to seven days old apterous females of M. persicae and 3-week old plants with 4–5 fully developed leaves were used for experiments. M. persicae were obtained from the laboratory culture maintained at the Department of Botany and Ecology for many generations since 2000. All experiments were carried out under the same conditions of temperature, relative humidity, and photoperiod. The bioassays were started at 10–11.a.m. Each compound was dissolved in 70% ethanol to obtain the recommended 0.1% solution[40]. All compounds were applied on the adaxial and abaxial leaf surfaces by immersing a leaf in the ethanolic solution of a given compound for 30 s.[20]. Control leaves of similar size were immersed in 70% ethanol that was used as a solvent for the studied compounds. Experiments were performed 1 h after the compounds application to allow the evaporation of the solvent. Every plant and aphid were used only once.
Aphid probing and the phloem sap uptake by M. persicae was monitored using the technique of electronic registration of aphid probing in plant tissues, known as EPG (= Electrical Penetration Graph), that is frequently employed in insect–plant relationship studies considering insects with sucking-piercing mouthparts[42]–[44]. In this experimental set-up, aphid and plant are connected to electrodes and thus made parts of an electric circuit, which is completed when the aphid inserts its stylets into the plant. Weak voltage is supplied in the circuit, and all changing electric properties are recorded as EPG waveforms that can be correlated with aphid activities and stylet position in plant tissues[45],[46]. The parameters describing aphid behaviour during probing and feeding, such as total time of probing, proportion of phloem patterns E1 and E2, number of probes, etc., are good indicators of plant suitability or interference of probing by chemical or physical factors in individual plant tissues[44]–[46]. In the present study, aphids were attached to a golden wire electrode with conductive silver paint (epgsystems. eu) and starved for 1 h prior to the experiment. Probing behaviour of 12 apterous females/studied compound and control was monitored for 8 h continuously with Giga-4 and Giga-8 DC EPG with 1 GΩ of input resistance recording equipment (EPG Systems, Wageningen, The Netherlands). Each aphid was given access to a freshly prepared plant and each aphid/plant combination was used only once. Various behavioural phases were labelled manually using the Stylet + software (www.epgsystems.eu). The following aphid behaviours were distinguished: no penetration (waveform 'np' – aphid stylets outside the plant), pathway phase—penetration of non-phloem tissues (waveforms 'ABC'), phloem phase (salivation into sieve elements, waveform ‘E1’ and ingestion of phloem sap, waveform ‘E2’), and xylem phase (ingestion of xylem sap, waveform 'G'). Waveform ‘G’ occurred rarely irrespective of the treatment. Therefore, in all calculations the xylem phase was added to the pathway phase and termed as probing in non-phloem tissues. The E1/E2 transition patterns were included in E2. Waveform patterns that were not terminated before the end of the experimental period (8 h) were not excluded from the calculations. The parameters derived from EPG recordings were analyzed according to their frequency and duration in configuration related to activities in peripheral and vascular tissues.
All statistical calculations related to data of the no-choice test were performed using StatSoft, Inc. (2014) STATISTICA (data analysis software system), version 12, www.statsoft.com. […]

MV4-11 cells = experiment: Antiproliferative activity, MTT assay; type: cell-based, human; conditions: for IC50: 72 h exposure, MTT, mean ± SD, n.a = no activity in concentration of 5, 25, 125, 625 μM; for Selectivity index SI, MV4-11: SI = IC50 BALB/3T3 / IC50 MV4-11
Experimental: Human biphenotypic B myelomonocytic leukemia MV4-11, human colon cancer LoVo cell line and normal mouse fibroblast BALB/3T3 cells were obtained from American Type Culture Collection (Rockville, Maryland, USA), human lung carcinoma A549 cells were obtained from European Collection of Authenticated Cell Cultures (UK). All the cell lines are being maintained at the Hirszfeld Institute of Immunology and Experimental Therapy, PAS, Wroclaw, Poland and were cultured according the procedure described before.
Cell lines were cultured according to the protocol described before. MV4-11 cells were cultured in RPMI 1640 medium (Gibco, UK) with 1.0 mM sodium pyruvate, and 10% fetal bovine serum (FBS) (all from Sigma-Aldrich, Germany). A549, LoVo and LoVo/DX cells were cultured in RPMI 1640 + Opti-MEM (1:1) (both from Gibco, UK) supplemented with 5% fetal bovine serum, 1.0 mM sodium pyruvate (LoVo and LoVo/DX cells) (all from Sigma Aldrich Germany) and 0.1 μg/mL doxorubicin chloride (Accord) (only LoVo/DX cells). BALB/3T3 cells in Dulbecco medium (IIET, Poland) supplemented with 10% fetal bovine serum (Sigma-Aldrich, Germany). All culture media were supplemented with 2 mM L-glutamine (Sigma-Aldrich, Germany), 100 units/mL penicillin, and 100 µg/mL streptomycin (both from Polfa Tarchomin S.A., Poland). All cell lines were grown at 37 °C with 5% CO2 humidified atmosphere.
The solutions of the compounds (50 mM) were prepared by dissolving the substances in DMSO (Sigma Aldrich, Germany). Then the tested compounds were diluted in culture medium to reach the final concentrations of 625, 125, 25 and 5 μM. Before adding of the tested compounds (24 h prior), the cells were plated in 96-well plates (Sarstedt, Germany) at a density of 1 × 10^4 or 0.5 × 10^4 (A549) cells per well. The assay was performed after 72 h of exposure to 625, 125, 25 and 5 μM of the tested agents. The in vitro cytotoxic effect of all agents was examined using the MTT (MV4-11) or SRB assay, described previously. The results were calculated as an IC50 (inhibitory concentration 50%) the concentration of tested agent, which is cytotoxic for 50% of the cancer cells. Each compound in each concentration was tested in triplicate in a single experiment, which was repeated 3–5 times.

Compound | IC50 (LoVo/DX cells; Homo sapiens, LoVo/DX) | Selectivity index SI, LoVo/DX (LoVo/DX cells) | Mean duration of probing (C + G + E) (Myzus persicae) | Number of probes (Myzus persicae) | Total duration of pathway (C) (Myzus persicae) | Total duration of phloem phase (E) (Myzus persicae) | Total duration of probing (C + G + E) (Myzus persicae) | Number of probes before first phloem phase (Myzus persicae) | Time from first probe to first phloem phase (Myzus persicae) | Duration of first phloem phase (Myzus persicae) | Total duration of phloem salivation E1 (Myzus persicae) | Total duration of phloem sap ingestion E2 (Myzus persicae) | Number of probes < 3 min (Myzus persicae) | Proportion of salivation in phloem phase (Myzus persicae) | Proportion of phloem phase in total probing (Myzus persicae) | IC50 (MV4-11 cells; Homo sapiens, MV4-11) | Selectivity index SI, MV4-11 (MV4-11 cells) | also measured
CC(C)CCCC(C)CCCC(C)CCC[C@]1(C)CC(=O)O[C@H]1CBr (stereo in doubt) [compound 5, cis-5-Bromomethyl-4-methyl-4-(4′,8′,12′-trimethyltridecyl)dihydrofuran-2-one] | 261 ± 104 µM | 1.62 | 0.5 ± 0.1 h | 31.6 ± 9.1 | 2.8 ± 0.5 h | 4.0 ± 0.7 h | 7.1 ± 0.4 h | 10.3 ± 3.1 | 1.4 ± 0.3 h | 2.2 ± 0.8 h | 2.4 ± 0.6 min | 4.0 ± 0.7 h | 7.1 ± 2.8 | 3.8% | 54.0% | 52 ± 13.8 µM | 8.15 | –
CC(C)CCCC(C)CCCC(C)CCC[C@]1(C)CC(=O)O[C@@H]1CBr (stereo in doubt) [compound 4, trans-5-Bromomethyl-4-methyl-4-(4′,8′,12′-trimethyltridecyl)dihydrofuran-2-one] | 306 ± 136 µM | 1.14 | 0.9 ± 0.3 h | 20.8 ± 5.2 | 2.4 ± 0.6 h | 4.8 ± 0.8 h | 7.4 ± 0.3 h | 17.2 ± 4.8 | 2.7 ± 0.8 h | 3.0 ± 0.9 h | 1.8 ± 0.6 min | 4.8 ± 0.8 h | 8.5 ± 3.6 | 1.5% | 62.9% | 46.9 ± 11.7 µM | 7.43 | –
3,7,11,15-tetramethylhexadec-2-en-1-ol [Phytol (1), reference compound] | – | 0.91 | 0.3 ± 0.1 h | 41.4 ± 7.6 | 4.2 ± 0.4 h | 2.8 ± 0.5 h | 7.1 ± 0.2 h | – | – | 1.6 ± 0.5 h | 8.4 ± 2.4 min | 2.7 ± 0.5 h | 18.8 ± 3.6 | 18.3% | 38.4% | – | 1.25 | IC50 (LoVo/DX cells): 70.8 ± 3.9 µM; Number of probes before first phloem phase (Myzus persicae; listed as phytol): 27.0 (± 5.3); Number of probes before first phloem phase (Myzus persicae; listed as phytol (1)): 27.0 ± 5.3; Time from first probe to first phloem phase (Myzus persicae; listed as phytol (1)): 2.7 ± 0.6 h; IC50 (MV4-11 cells): 51.4 ± 3.6 µM
